# Laboratory results taken from patent US8436002B2, “AKT inhibitors” (Eli Lilly and Company, priority 2009, dated 2013).
# “And” between values parts separate entries of the source, which are not always exact repeats. Equal entries are not always repeated.
# Tests used:
# AKT = AKT In Vivo Target Inhibition (IV), U87MG tumors in athymic rats; settings: Rattus norvegicus, U-87 MG, IV dose 20 mpk, 4 hr post IV dose, n = 2, read-out: p(S9)GSK 3β - % inhibition
# Experimental: Exponentially growing U87MG cells derived from a human glioblastoma are implanted subcutaneously in the rear flank of athymic rats. When the tumors reach the size of 200-250 mm^3, compounds are administered to the animals by a single IV injection in a dose-response study or in a time-course study. At the end of each treatment, animals are asphyxiated with CO2. Tumors are harvested by surgical excision, quickly frozen in liquid nitrogen and stored at −80° C. until analysis. Sera are prepared from blood harvested from the heart by cardiac puncture and stored at −80° C. until analysis.
# The AKT inhibitor is extracted from serum with acetonitrite/methanol and analyzed alongside an internal standard by LC/MS/MS. […]
# Tumors are homogenized in 2 volumes of a lysis buffer containing 25 mM Tris (pH 7.5), Roche complete protease inhibitors, and 1 mM vanadate with Powergen 125 homogenizer, then sequentially passed through an 18 gauge needle and a 23 gauge needle. […] Protein concentrations in the cytoplasmic extracts are determined with a BCA kit. Phospho-GSK3b (pGSK3b) in the soluble extracts is analyzed with the ELISA Kit. For each study, percent inhibitions are calculated relative to the vehicle control group and ANOVA analysis is performed using the JMP software package for the determination of statistical significance.
# Calu6 = experiment: Cell proliferation combination study (CellTiter-Glo); format: cell-based
# Experimental: (§1) The proliferation assay uses the CellTiter-Glo Luminescent Cell Viability Assay System (commercially available from Promega) to determine the cell number of viable cells in culture based on quantitation of the ATP present, which signals the presence of metabolically active cells.
# (§2) The cells are plated in 96-well plate at 2000 cells/well in volume of 50 μL medium (DMEM, 10% FBS, 25 mM HEPES, 1.0 mM Sodium Pyruvate, and 0.1 mM Non Essential Amino Acids) except column 1 with medium only as blank control. The plates are incubated overnight at 37° C. and 5% CO2. On the next day, compound stocks are prepared at 40 mM in DMSO (500×) and serially diluted in DMSO in a 96-well round bottom polypropylene plate. Compounds are assayed at 10 concentrations in duplicate, 4 compounds per plate.
# (§3) 4 μL of the serial DMSO dilutions are transferred to a 96 deep-well plate and 1 mL complete culture medium is added to create 2× stock for dosing. 50 μL of each 2× dosing stock is gently transferred to the corresponding well of the cell plate resulting in a 0.2% DMSO concentration and a 100 μL final volume. […] medium are added to the Control columns (Column 12) and background columns (Column 1). Cells are incubated with compound for at 37° C., 5% CO2 for 72 hr.
# (§4) After incubation, 100 μL of the pre-prepared CellTiter-Glo reagent (Promega, Cat: G7571) is added in each well and then the cells are homogenized by mixing on an orbital shaker for 2 min and incubated at RT for 10 minutes to allow luminescent signal stabilization Luminescent raw data is recorded on Wallac Victor V plate reader and the IC50 value for each compound is generated using percent inhibition data. A four-parameter logistic curve is fit to each dose response.
# (§5) Combination studies use the fixed ratio method, where the other therapeutic agent and the compound of the present invention are present in fixed ratios of concentrations corresponding to the IC50 equivalents of single agents. The read out for the combination studies is cell proliferation in respective cell lines using Cell Titer Glo reagents. Controls are processed similarly but without the compounds. Analysis of the data is done according to the method described in Zhao et. Al. (Clinical Cancer Research 10, 7994-8004, Dec. 1, 2004) utilizing an internally developed web based tool. A combination index is calculated for each cell proliferation inhibition activity level according to the equation below. Combination Index at activity level x=[Concentration of other therapeutic agent in the combination at the activity level x/ICx of the other therapeutic agent]+[Concentration of the compound of the present invention in the combination at the activity level x/ICx of the compound of the present invention]
# HCC827 = experiment: as above; format: cell-based
# Experimental: as §1, §2, §3, §4, §5
# H1650 = experiment: as above; format: cell-based
# Experimental: as §1, §2, §3, §4, §5
# NCIH460 = experiment: as above; format: cell-based
# Experimental: as §1, §2, §3, §4, §5
# MCF-7 = experiment: as above; format: cell-based
# Experimental: as §1, §2, §3, §4, §5
# SK0V3 = experiment: as above; format: cell-based
# Experimental: as §1, §2, §3, §4, §5
# MDA-MB-231 = experiment: as above; format: cell-based
# Experimental: as §1, §2, §3, §4, §5
# H1155 = experiment: as above; format: cell-based; settings: with Gemcitabine
# Experimental: as §1, §2, §3, §4, §5
# BxPC3 = experiment: as above; format: cell-based
# Experimental: as §1, §2, §3, §4, §5
# A2780 = experiment: as above; format: cell-based
# Experimental: as §1, §2, §3, §4, §5
# NCI-H1975 = experiment: as above; format: cell-based
# Experimental: as §1, §2, §3, §4, §5
# RKO = experiment: as above; format: cell-based; settings: with Irinotecan
# Experimental: as §1, §2, §3, §4, §5
# AsPC1 = experiment: as above; format: cell-based
# Experimental: as §1, §2, §3, §4, §5
smiles,measurement,setting,value
"C[C@@H]1CC(=O)Nc2ncnc(N3CCC(c4nc(C(F)(F)F)cn4CCN4CCCC4)CC3)c21 [Example 78, (R)-5-Methyl-4-(4-(1-(2-(pyrrolidin-1-yl)ethyl)-4-(trifluoromethyl)-1H-imidazol-2-yl)piperidin-1-yl)-5,6-dihydropyrido[2,3-d]pyrimidin-7(8H)-one]",inhibition at 20 mg/kg,AKT,48%
"C[C@@H]1CC(=O)Nc2ncnc(N3CCC(c4nc(C(F)(F)F)cn4CCN4CCCC4)CC3)c21 (single isomer, unassigned) [Example 77]",Combination Index at 50% Inhibition,Calu6; with Cisplatin,0.86
same,Combination Index at 50% Inhibition,Calu6; with Docetaxel,0.65
same,Combination Index at 50% Inhibition,Calu6; with Erlotinib,0.20
same,Combination Index at 50% Inhibition,Calu6; with Gemcitabine,1.16
same,Combination Index at 50% Inhibition,Calu6; with Pemetrexed,0.93
same,Combination Index at 50% Inhibition,Calu6; with Tasisulam,1.16
same,Combination Index at 50% Inhibition,"HCC827; with Erlotinib, HCC827",1.87
same,Combination Index at 50% Inhibition,"HCC827; with Gemcitabine, HCC827",0.17
same,Combination Index at 50% Inhibition,"HCC827; with Rapamycin, HCC-827",1.13
same,Combination Index at 50% Inhibition,H1650; with Erlotinib,0.04
same,Combination Index at 50% Inhibition,H1650; with Gemcitabine,0.43
same,Combination Index at 50% Inhibition,H1650; with Rapamycin,0.07
same,Combination Index at 50% Inhibition,NCIH460; with Cisplatin,0.76 and 0.91
same,Combination Index at 50% Inhibition,NCIH460; with Docetaxel,0.82
same,Combination Index at 50% Inhibition,NCIH460; with Erlotinib,0.64
same,Combination Index at 50% Inhibition,NCIH460; with Gemcitabine,0.88
same,Combination Index at 50% Inhibition,MCF-7; with Erlotinib,0.58
same,Combination Index at 50% Inhibition,MCF-7; with Gemcitabine,0.10
same,Combination Index at 50% Inhibition,MCF-7; with Paclitaxel,0.60
same,Combination Index at 50% Inhibition,MCF-7; with Rapamycin,0.46
same,Combination Index at 50% Inhibition,MCF-7; with Tamoxifen,0.74
same,Combination Index at 50% Inhibition,SK0V3; with Cisplatin,1.00
same,Combination Index at 50% Inhibition,SK0V3; with Doxorubicin,1.12
same,Combination Index at 50% Inhibition,MDA-MB-231; with Erlotinib,0.05
same,Combination Index at 50% Inhibition,MDA-MB-231; with Gemcitabine,0.39
same,Combination Index at 50% Inhibition,MDA-MB-231; with Paclitaxel,1.13
same,Combination Index at 50% Inhibition,MDA-MB-231; with Rapamycin,0.01
same,Combination Index at 50% Inhibition,H1155,0.43
same,Combination Index at 50% Inhibition,BxPC3; with Erlotinib,0.36
same,Combination Index at 50% Inhibition,BxPC3; with Gemcitabine,1.13
same,Combination Index at 50% Inhibition,BxPC3; with Rapamycin,0.15
same,Combination Index at 50% Inhibition,A2780; with Cisplatin,0.93
same,Combination Index at 50% Inhibition,A2780; with Doxorubicin,0.85
same,Combination Index at 50% Inhibition,NCI-H1975; with Cisplatin,0.77
same,Combination Index at 50% Inhibition,NCI-H1975; with Docetaxel,1.13
same,Combination Index at 50% Inhibition,NCI-H1975; with Erlotinib,0.47
same,Combination Index at 50% Inhibition,NCI-H1975; with Gemcitabine,0.55
same,Combination Index at 50% Inhibition,NCI-H1975; with Pemetrexed,1.73
same,Combination Index at 50% Inhibition,RKO,0.83
same,Combination Index at 50% Inhibition,AsPC1; with Erlotinib,0.23
same,Combination Index at 50% Inhibition,AsPC1; with Gemcitabine,0.23
same,Combination Index at 50% Inhibition,AsPC1; with Rapamycin,0.22
